Assay results taken from patent publication US4335249A, “Herbicidal diphenyl ethers, sulfides, sulfoxides and sulfones” (Rohm and Haas Company, priority 1976, dated 1982).

Columns and labels:
Format in all cases: in vivo
[1] = test system: cocklebur (Xanthium pensylvanicum); assay: Preemergence herbicidal activity, cocklebur; settings: 2 lb/A; for pest or weed control at 2241.7 g/ha: Xanthium strumarium, pre-emergence, 336 h
Procedure, shortened: (§1)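 Seeds were sown in soil flats and sprayed either right after planting (preemergence) or two weeks after germination (postemergence). Compound in acetone diluted with water was applied at a 50 gal/acre carrier volume at rates in lb/A. About two weeks later, average percent control was scored as percent of plants killed.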

marigold (Tagetes spp.) [2] = assay: Preemergence herbicidal activity, marigold; settings: 2 lb/A; for pest or weed control at 2241.7 g/ha: pre-emergence, 336 h
Procedure, shortened: as §1

[3] = test system: morningglory (Ipomoca spp.); assay: Preemergence herbicidal activity, morningglory; settings: 2 lb/A; for pest or weed control at 2241.7 g/ha: Ipomoea, pre-emergence, 336 h
Procedure, shortened: as §1

[4] = test system: tomato (Lycopersicon esculentum); assay: Preemergence herbicidal activity, tomato; settings: Pre, 2 lb/A; for pest or weed control at 2241.7 g/ha: Solanum lycopersicum, pre-emergence, 336 h
Procedure, shortened: as §1

[5] = test system: velvetleaf (Abutilon theophrasti); assay: Preemergence herbicidal activity, velvetleaf; settings: Pre, 2 lb/A; for pest or weed control at 2241.7 g/ha: Abutilon theophrasti, pre-emergence, 336 h
Procedure, shortened: as §1

[6] = test system: barnyardgrass (Echinochloa crusgalli); assay: Preemergence herbicidal activity, barnyardgrass; settings: Pre, 2 lb/A; for pest or weed control at 2241.7 g/ha: Echinochloa crus-galli, pre-emergence, 336 h
Procedure, shortened: (§2)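 Seeds were sown in soil flats and sprayed either immediately after planting (preemergence) or two weeks after germination (postemergence). The test compound was dissolved in acetone, diluted with water and applied at a carrier volume equivalent to 50 gallons per acre, dosed in pounds per acre (lb/A).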

[7] = test system: downybrome (Bromus tectorum); assay: Preemergence herbicidal activity, downybrome; settings: Pre, 2 lb/A; for pest or weed control at 2241.7 g/ha: Bromus tectorum, pre-emergence, 336 h
Procedure, shortened: as §1

foxtail (Setaria spp.) [8] = assay: Preemergence herbicidal activity, foxtail; settings: Pre, 2 lb/A; for pest or weed control at 2241.7 g/ha: Setaria, pre-emergence, 336 h
Procedure, shortened: as §1

[9] = test system: yellow nutsedge (Cyperus esculentus); assay: Preemergence herbicidal activity, yellow nutsedge; settings: 2 lb/A; for pest or weed control at 2241.7 g/ha: Cyperus, pre-emergence, 336 h
Procedure, shortened: as §1

wild oats (Avena fatua) [10] = assay: Preemergence herbicidal activity, wild oats; settings: Pre, 2 lb/A; for pest or weed control at 2241.7 g/ha: Avena fatua, pre-emergence, 336 h, read-out: % control, Wild oat
Procedure, shortened: as §1

[11] = test system: cocklebur (Xanthium pensylvanicum); assay: Postemergence herbicidal activity, cocklebur; settings: 2 lb/A; for pest or weed control at 2241.7 g/ha: Xanthium strumarium, post-emergence, 336 h
Procedure, shortened: as §1

marigold (Tagetes spp.) [12] = assay: Postemergence herbicidal activity, marigold; settings: 2 lb/A; for pest or weed control at 2241.7 g/ha: post-emergence, 336 h
Procedure, shortened: as §1

[13] = test system: morningglory (Ipomoca spp.); assay: Postemergence herbicidal activity, morningglory; settings: 2 lb/A; for pest or weed control at 2241.7 g/ha: Ipomoea, post-emergence, 336 h
Procedure, shortened: as §1

[14] = test system: tomato (Lycopersicon esculentum); assay: Postemergence herbicidal activity, tomato; settings: Post, 2 lb/A; for pest or weed control at 2241.7 g/ha: Solanum lycopersicum, post-emergence, 336 h
Procedure, shortened: as §1

[15] = test system: velvetleaf (Abutilon theophrasti); assay: Postemergence herbicidal activity, velvetleaf; settings: 2 lb/A; for pest or weed control at 2241.7 g/ha: Abutilon theophrasti, post-emergence, 336 h
Procedure, shortened: as §2

[16] = test system: barnyardgrass (Echinochloa crusgalli); assay: Postemergence herbicidal activity, barnyardgrass; settings: Echinochloa crus-galli, post-emergence, 336 h; Post, 2 lb/A
Procedure, shortened: as §2

[17] = test system: downybrome (Bromus tectorum); assay: Postemergence herbicidal activity, downybrome; settings: Post, 2 lb/A; for pest or weed control at 2241.7 g/ha: Bromus tectorum, post-emergence, 336 h
Procedure, shortened: as §1

foxtail (Setaria spp.) [18] = assay: Postemergence herbicidal activity, foxtail; settings: Post, 2 lb/A; for pest or weed control at 2241.7 g/ha: Setaria, post-emergence, 336 h
Procedure, shortened: as §1

[19] = test system: yellow nutsedge (Cyperus esculentus); assay: Postemergence herbicidal activity, yellow nutsedge; settings: 2 lb/A; for pest or weed control at 2241.7 g/ha: Cyperus, post-emergence, 336 h
Procedure, shortened: as §1

wild oats (Avena fatua) [20] = assay: Postemergence herbicidal activity, wild oats; settings: Post, 2 lb/A; for pest or weed control at 2241.7 g/ha: Avena fatua, post-emergence, 336 h, read-out: % control, Wild oat
Procedure, shortened: as §1

| Compound | pest or weed control at 2241.7 g/ha [1] [%] | pest or weed control at 2241.7 g/ha (marigold (Tagetes spp.) [2]) [%] | pest or weed control at 2241.7 g/ha [3] [%] | pest or weed control at 2241.7 g/ha [4] [%] | pest or weed control at 2241.7 g/ha [5] [%] | pest or weed control at 2241.7 g/ha [6] [%] | pest or weed control at 2241.7 g/ha [7] [%] | pest or weed control at 2241.7 g/ha (foxtail (Setaria spp.) [8]) [%] | pest or weed control at 2241.7 g/ha [9] [%] | pest or weed control at 2241.7 g/ha (wild oats (Avena fatua) [10]) [%] | pest or weed control at 2241.7 g/ha [11] [%] | pest or weed control at 2241.7 g/ha (marigold (Tagetes spp.) [12]) [%] | pest or weed control at 2241.7 g/ha [13] [%] | pest or weed control at 2241.7 g/ha [14] [%] | pest or weed control at 2241.7 g/ha [15] [%] | pest or weed control at 2241.7 g/ha [16] [%] | pest or weed control at 2241.7 g/ha [17] [%] | pest or weed control at 2241.7 g/ha (foxtail (Setaria spp.) [18]) [%] | pest or weed control at 2241.7 g/ha [19] [%] | pest or weed control at 2241.7 g/ha (wild oats (Avena fatua) [20]) [%] | also measured |
| --- | --- | --- | --- | --- | --- | --- | --- | --- | --- | --- | --- | --- | --- | --- | --- | --- | --- | --- | --- | --- | --- |
| CC(Oc1ccc(Oc2ccc(C(F)(F)F)cc2Cl)cc1)C(=O)OCCN(C)C (centres unmarked) [Example 31] | 0 | 0 | 70 | 0 | 0 | 100 | 30 | 100 | 0 | 40 | 60 | 40 | 80 | 90 | 80 | 100 | 100 | 100 | 0 | 99 | – |
| CCOC(=O)C(C)Oc1ccc(Oc2ccc(C(F)(F)F)cc2Cl)cc1OC (centres unmarked) [Example 8, Ethyl 2-[4-(2-chloro-4-trifluoromethylphenoxy)-2-methoxyphenoxy] propionate] | 0 | 0 | 0 | 0 | 0 | 0 | 0 | 99 | 0 | 0 | 0 | 0 | 0 | 0 | 0 | 0 | 0 | 0 | 0 | 0 | – |
| CC(Oc1ccc(Oc2ccc(C(F)(F)F)cc2Cl)cc1)C(=O)O (centres unmarked) [Example 15] | – | – | – | – | – | – | – | – | – | – | – | – | – | – | – | 90 | – | – | – | – | % control, Cocklebur ([1]; Pre): 0%; % control, Marigold (marigold (Tagetes spp.) [2]; Pre): 0%; % control, Morningglory ([3]; Pre): 40%; % control, Tomato [4]: 0%; % control, Velvetleaf [5]: 0%; % control, Barnyardgrass [6]: 100%; % control, Downybrome [7]: 0%; % control, Foxtail (foxtail (Setaria spp.) [8]): 100%; % control, Nutsedge ([9]; Pre): 0%; % control, Wild oat (wild oats (Avena fatua) [10]): 0%; % control, Cocklebur ([11]; Post): 0%; % control, Marigold (marigold (Tagetes spp.) [12]; Post): 0%; % control, Morningglory ([13]; Post): 0%; % control, Tomato [14]: 0%; % control, Velvetleaf ([15]; Post): 0%; % control, Downybrome [17]: 0%; % control, Foxtail (foxtail (Setaria spp.) [18]): 90%; % control, Nutsedge ([19]; Post): 0%; % control, Wild oat (wild oats (Avena fatua) [20]): 20% |
| CC(C)COC(=O)C(C)Oc1ccc(Oc2ccc(C(F)(F)F)cc2Cl)cc1 (centres unmarked) [Example 33] | 0 | 0 | 0 | 0 | 0 | 99 | 90 | 100 | 0 | 90 | 0 | 0 | 0 | 0 | 0 | 100 | 100 | 100 | 0 | 100 | – |
